In the supplement of paper PMC10733146:

Assays:
Experiment in all cases: viability relative to DMSO control (fraction); higher = less drug effect (more viable cells)
[1] = tested on: primary AML patient cells (S091); settings: 48 h
Outline: (§1)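 Viability was quantified by CellTiter-Glo luminescence and related to the median of 16 inner DMSO wells. Before that, primary mononuclear tumour cells, fresh or cryopreserved and Ficoll-isolated from blood or bone marrow or prepared from processed lymph node, were plated at 4 × 10^4 cells per well in 384-well plates containing pre-plated compounds at five concentrations, one well each. Plates were incubated in RPMI-1640 with penicillin/streptomycin, L-glutamine and human serum at 37 °C and 5% CO2 for 48 h.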

[2] = tested on: primary AML patient cells (S011); settings: 48 h
Outline: as §1

[3] = tested on: primary AML patient cells (S081); settings: 48 h
Outline: as §1

[4] = tested on: primary T-PLL patient cells (S008); settings: 48 h
Outline: as §1

[5] = tested on: primary AML patient cells (S037); settings: 48 h
Outline: as §1

[6] = tested on: primary FL patient cells (S022); settings: 48 h
Outline: as §1

[7] = tested on: primary AML patient cells (S055); settings: 48 h
Outline: as §1

[8] = tested on: primary ALL patient cells (S048); settings: 48 h
Outline: as §1

[9] = tested on: primary AML patient cells (S002); settings: 48 h
Outline: as §1

[10] = tested on: primary AML patient cells (S025); settings: 48 h
Outline: as §1

[11] = tested on: primary AML patient cells (S021); settings: 48 h
Outline: as §1

[12] = tested on: primary DLBCL patient cells (S049); settings: 48 h
Outline: as §1

[13] = tested on: primary T-NHL patient cells (S058); settings: 48 h
Outline: as §1

[14] = tested on: primary MCL patient cells (S068); settings: 48 h
Outline: as §1

[15] = tested on: primary AML patient cells (S019); settings: 48 h
Outline: as §1

[16] = tested on: primary AML patient cells (S089); settings: 48 h
Outline: as §1

[17] = tested on: primary AML patient cells (S007); settings: 2 µM; 48 h
Outline: as §1

[18] = tested on: primary DLBCL patient cells (S076); settings: 48 h
Outline: as §1

Compound: CC(C)c1cc(-c2n[nH]c(=O)n2-c2ccc3c(ccn3C)c2)c(O)cc1O [Ganetespib]
- viability ([1]; 0.0032 µM): 0.926
- viability ([1]; 0.016 µM): 0.901
- viability ([1]; 0.08 µM): 0.364
- viability ([1]; 0.4 µM): 0.259
- viability ([1]; 2 µM): 0.26
- viability ([2]; 0.0032 µM): 1.13
- viability ([2]; 0.016 µM): 0.778
- viability ([2]; 0.08 µM): 0.624
- viability ([2]; 0.4 µM): 0.684
- viability ([2]; 2 µM): 0.644
- viability ([3]; 0.0032 µM): 0.981
- viability ([3]; 0.016 µM): 0.674
- viability ([3]; 0.08 µM): 0.0862
- viability ([3]; 0.4 µM): 0.0773
- viability ([3]; 2 µM): 0.0742
- viability ([4]; 0.0032 µM): 0.937
- viability ([4]; 0.016 µM): 1
- viability ([4]; 0.08 µM): 0.939
- viability ([4]; 0.4 µM): 0.988
- viability ([4]; 2 µM): 0.961
- viability ([5]; 0.0032 µM): 0.976
- viability ([5]; 0.016 µM): 0.988
- viability ([5]; 0.08 µM): 0.947
- viability ([5]; 0.4 µM): 0.979
- viability ([5]; 2 µM): 0.937
- viability ([6]; 0.0032 µM): 0.919
- viability ([6]; 0.016 µM): 0.865
- viability ([6]; 0.08 µM): 0.833
- viability ([6]; 0.4 µM): 0.764
- viability ([6]; 2 µM): 0.727
- viability ([7]; 0.0032 µM): 0.976
- viability ([7]; 0.016 µM): 0.928
- viability ([7]; 0.08 µM): 0.403
- viability ([7]; 0.4 µM): 0.368
- viability ([7]; 2 µM): 0.337
- viability ([8]; 0.0032 µM): 0.9
- viability ([8]; 0.016 µM): 0.632
- viability ([8]; 0.08 µM): 0.517
- viability ([8]; 0.4 µM): 0.48
- viability ([8]; 2 µM): 0.453
- viability ([9]; 0.0032 µM): 0.957
- viability ([9]; 0.016 µM): 0.414
- viability ([9]; 0.08 µM): 0.328
- viability ([9]; 0.4 µM): 0.326
- viability ([9]; 2 µM): 0.323
- viability ([10]; 0.0032 µM): 0.936
- viability ([10]; 0.016 µM): 0.579
- viability ([10]; 0.08 µM): 0.343
- viability ([10]; 0.4 µM): 0.334
- viability ([11]; 0.0032 µM): 0.917
- viability ([11]; 0.016 µM): 0.742
- viability ([11]; 0.08 µM): 0.53
- viability ([11]; 0.4 µM): 0.637
- viability ([11]; 2 µM): 0.617
- viability ([12]; 0.0032 µM): 0.955
- viability ([12]; 0.016 µM): 0.989
- viability ([12]; 0.08 µM): 0.888
- viability ([12]; 0.4 µM): 0.54
- viability ([12]; 2 µM): 0.537
- viability ([13]; 0.0032 µM): 1.01
- viability ([13]; 0.016 µM): 0.978
- viability ([13]; 0.08 µM): 0.943
- viability ([13]; 0.4 µM): 1.14
- viability ([13]; 2 µM): 1.12
- viability ([14]; 0.0032 µM): 1.02
- viability ([14]; 0.016 µM): 1.13
- viability ([14]; 0.08 µM): 0.532
- viability ([14]; 0.4 µM): 0.535
- viability ([14]; 2 µM): 0.545
- viability ([15]; 0.0032 µM): 0.923
- viability ([15]; 0.016 µM): 0.682
- viability ([15]; 0.08 µM): 0.411
- viability ([15]; 0.4 µM): 0.465
- viability ([15]; 2 µM): 0.444
- viability ([16]; 0.0032 µM): 0.692
- viability ([16]; 0.016 µM): 0.371
- viability ([16]; 0.08 µM): 0.182
- viability ([16]; 0.4 µM): 0.254
- viability ([16]; 2 µM): 0.215
- viability [17]: 0.0928
- viability ([18]; 0.0032 µM): 1.12
- viability ([18]; 0.016 µM): 0.904
- viability ([18]; 0.08 µM): 0.467
- viability ([18]; 0.4 µM): 0.407
- viability ([18]; 2 µM): 0.396
